Results reported in PubChem BioAssay AID330 (DTP/NCI, 2004).
Values joined by “and” are separate entries in the source; they are usually repeats but may differ in a detail not shown here. Identical values can stand only once. Toxic doses and inconclusive results are not listed. Bridge positions count the residues as written; N and C are the ends. Square brackets hold non-standard residues; d marks the D form. Peptide text beside a SMILES is read from it. NMeV = CN[CH](C(=O)O)C(C)C; Sar = CNCC(=O)O

System: P388 leukemia ip, CD2F1 mice, survival T/C
Experiment: NCI In Vivo Anticancer Drug Screen. Data for tumor model P388 Leukemia (intraperitoneal) in CD2F1 (CDF1) mice
Details: endpoint: median survival time, higher = longer survival
In short: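 Mice carrying the transplanted tumor received test compound or vehicle. Survival was recorded in each group, and the value is the treated-group measurement divided by that of the vehicle-treated control group.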

[1] = dose: 50.0 mg/kg/injection, schedule: Q01DX005 (ip), vehicle: saline with Tween-80
[2] = dose: 100.0 mg/kg/injection, schedule: Q01DX005 (ip), vehicle: saline with Tween-80
[3] = dose: 200.0 mg/kg/injection, schedule: Q01DX005 (ip), vehicle: saline with Tween-80
[4] = dose: 6.25 mg/kg/injection, schedule: Q01DX001 (ip), vehicle: Klucel (hydroxypropylcellulose) (HPC)
[5] = dose: 12.5 mg/kg/injection, schedule: Q01DX001 (ip), vehicle: Klucel (hydroxypropylcellulose) (HPC)
[6] = dose: 25.0 mg/kg/injection, schedule: Q01DX001 (ip), vehicle: Klucel (hydroxypropylcellulose) (HPC)
[7] = dose: 60.0 mg/kg/injection, schedule: Q01DX005 (ip), vehicle: saline with Tween-80
[8] = dose: 120.0 mg/kg/injection, schedule: Q01DX005 (ip), vehicle: saline with Tween-80
[9] = dose: 240.0 mg/kg/injection, schedule: Q01DX005 (ip), vehicle: saline with Tween-80
[10] = dose: 12.5 mg/kg/injection, schedule: Q01DX009 (ip), vehicle: saline with Tween-80
[11] = dose: 25.0 mg/kg/injection, schedule: Q01DX009 (ip), vehicle: saline with Tween-80
[12] = dose: 50.0 mg/kg/injection, schedule: Q01DX009 (ip), vehicle: saline with Tween-80
[13] = dose: 50.0 mg/kg/injection, schedule: Q01DX005 (ip), vehicle: Klucel (hydroxypropylcellulose) (HPC)
[14] = dose: 100.0 mg/kg/injection, schedule: Q01DX005 (ip), vehicle: Klucel (hydroxypropylcellulose) (HPC)

Structure (SMILES): CC(C)C1NC(=O)C(N)C(C)OC(=O)C(C(C)C)N(C)C(=O)CN(C)C(=O)C2CCCN2C1=O (centres undefined) (tested in a mixture with another compound) (H-TVP[Sar][NMeV]; ester 1-C; configuration not given here)
- T/C (dose: 15.0 micrograms/kg/injection, schedule: Q01DX009 (ip), vehicle: water): 163 % of control
- T/C (dose: 31.0 micrograms/kg/injection, schedule: Q01DX009 (ip), vehicle: water): 159 % of control
- T/C (dose: 62.0 micrograms/kg/injection, schedule: Q01DX009 (ip), vehicle: water): 164 % of control
- T/C (dose: 110.0 micrograms/kg/injection, schedule: Q01DX009 (ip), vehicle: other): 200 % of control
- T/C (dose: 125.0 micrograms/kg/injection, schedule: Q01DX009 (ip), vehicle: water): 179 % of control
- T/C (dose: 165.0 micrograms/kg/injection, schedule: Q01DX009 (ip), vehicle: other): 254 % of control
- T/C (dose: 250.0 micrograms/kg/injection, schedule: Q01DX009 (ip), vehicle: other): 180 % of control
- T/C (dose: 250.0 micrograms/kg/injection, schedule: Q01DX009 (ip), vehicle: water): 225 % of control

Structure (SMILES): COc1cc(C=C2C(=O)C=CC2=O)cc(OC)c1O
- T/C (dose: 1.25 mg/kg/injection, schedule: Q04DX002 (ip), vehicle: saline with Tween-80): 102 % of control
- T/C (dose: 2.5 mg/kg/injection, schedule: Q04DX002 (ip), vehicle: saline with Tween-80): 103 % of control
- T/C (dose: 5.0 mg/kg/injection, schedule: Q04DX002 (ip), vehicle: saline with Tween-80): 102 % of control

Structure (SMILES): Oc1cccnc1CN1CCOCC1
- T/C (dose: 50.0 mg/kg/injection, schedule: Q01DX009 (ip), vehicle: saline): 101 % of control
- T/C (dose: 100.0 mg/kg/injection, schedule: Q01DX009 (ip), vehicle: saline): 93 % of control
- T/C (dose: 200.0 mg/kg/injection, schedule: Q01DX009 (ip), vehicle: saline): 101 % of control
- T/C (dose: 400.0 mg/kg/injection, schedule: Q01DX009 (ip), vehicle: saline): 101 % of control

Structure (SMILES): CCc1nc(N)nc(N)c1-c1ccc2c(c1)nnn2C1CCCCC1
- T/C [1]: 100 % of control
- T/C [2]: 100 % of control
- T/C [3]: 87 % of control

Structure (SMILES): Nc1cc([N+](=O)[O-])ccc1-c1ccc(NC(=O)CCNC=O)cc1
- T/C (dose: 12.5 mg/kg/injection, schedule: Q01DX009 (ip), vehicle: other): 93 % of control
- T/C (dose: 25.0 mg/kg/injection, schedule: Q01DX009 (ip), vehicle: other): 97 % of control
- T/C (dose: 50.0 mg/kg/injection, schedule: Q01DX009 (ip), vehicle: other): 90 % of control
- T/C (dose: 100.0 mg/kg/injection, schedule: Q01DX009 (ip), vehicle: other): 93 % of control
- T/C (dose: 200.0 mg/kg/injection, schedule: Q01DX009 (ip), vehicle: other): 91 % of control

Structure (SMILES): O=C1CCCCc2ccc(O)cc21
- T/C (dose: 100.0 mg/kg/injection, schedule: Q01DX009 (ip), vehicle: gum acacia): 104 % of control
- T/C (dose: 200.0 mg/kg/injection, schedule: Q01DX009 (ip), vehicle: gum acacia): 102 % of control
- T/C (dose: 400.0 mg/kg/injection, schedule: Q01DX009 (ip), vehicle: gum acacia): 110 % of control

Structure (SMILES): c1ccc([S][Pb]([c]2ccccc2)([c]2ccccc2)[c]2ccccc2)cc1
- T/C [4]: 96 % of control
- T/C [5]: 122 % of control
- T/C [6]: 114 % of control

Structure (SMILES): CC1=NCc2c(nnn2C)N1
- T/C (dose: 100.0 mg/kg/injection, schedule: Q01DX001 (ip), vehicle: Klucel (hydroxypropylcellulose) (HPC)): 104 % of control
- T/C (dose: 200.0 mg/kg/injection, schedule: Q01DX001 (ip), vehicle: Klucel (hydroxypropylcellulose) (HPC)): 101 % of control

Structure (SMILES): CCCCc1c(O)c(N=NC(=O)C[N+](C)(C)C)c2ccccc2c1O
- T/C [1]: 104 % of control
- T/C [2]: 110 % of control
- T/C [3]: 108 % of control

Structure (SMILES): COP(=S)(OC)SCc1cc(=O)n2c(C)cccc2n1
- T/C (dose: 6.25 mg/kg/injection, schedule: Q01DX005 (ip), vehicle: distilled water + alcohol): 102 % of control
- T/C (dose: 12.5 mg/kg/injection, schedule: Q01DX005 (ip), vehicle: distilled water + alcohol): 100 % of control
- T/C (dose: 25.0 mg/kg/injection, schedule: Q01DX005 (ip), vehicle: distilled water + alcohol): 102 % of control

Structure (SMILES): COC(=O)/C=C\C1(CC(C)C)N=C(c2ccccc2)OC1=O (centres undefined)
- T/C [1]: 104 % of control
- T/C [2]: 95 % of control
- T/C [3]: 104 % of control

Structure (SMILES): Cc1nn(C)c(=O)[nH]c1=O
- T/C [1]: 103 % of control
- T/C [2]: 106 % of control
- T/C [3]: 106 % of control

Structure (SMILES): OC1(c2ccccc2)C(c2ccccc2)=C(c2ccccc2)C(c2ccc(CCc3ccc(C4=C(c5ccccc5)C(O)(c5ccccc5)C(c5ccccc5)=C4c4ccccc4)cc3)cc2)=C1c1ccccc1 (centres undefined)
- T/C [4]: 105 % of control
- T/C [5]: 111 % of control
- T/C [6]: 90 % of control
- T/C (dose: 50.0 mg/kg/injection, schedule: Q01DX001 (ip), vehicle: Klucel (hydroxypropylcellulose) (HPC)): 94 % of control

Structure (SMILES): CN(C)C(=S)OCC1OC(OC2(CO)OC(COC(=S)N(C)C)C(O)C2O)C(O)C(O)C1O (centres undefined)
- T/C (dose: 60.0 mg/kg/injection, schedule: Q01DX005 (ip), vehicle: saline): 100 % of control
- T/C (dose: 120.0 mg/kg/injection, schedule: Q01DX005 (ip), vehicle: saline): 103 % of control
- T/C (dose: 240.0 mg/kg/injection, schedule: Q01DX005 (ip), vehicle: saline): 103 % of control

Structure (SMILES): CCCCCCCC1SCC(=O)N1c1nncs1 (centres undefined)
- T/C [7]: 94 % of control
- T/C [8]: 94 % of control
- T/C [9]: 91 % of control

Structure (SMILES): O=C(O)CC1(C(=O)O)CC2C=CC1C2 (centres undefined)
- T/C [7]: 104 % of control
- T/C [8]: 91 % of control
- T/C [9]: 91 % of control

Structure (SMILES): N#C/C(=C\C=C\c1ccccc1)C(N)=O
- T/C (dose: 50.0 mg/kg/injection, schedule: Q04DX003 (ip), vehicle: saline with Tween-80): 104 % of control
- T/C (dose: 100.0 mg/kg/injection, schedule: Q04DX003 (ip), vehicle: saline with Tween-80): 104 % of control
- T/C (dose: 200.0 mg/kg/injection, schedule: Q04DX003 (ip), vehicle: saline with Tween-80): 109 % of control

Structure (SMILES): COc1ccc2c(ccc3c(=O)c4c([nH]c32)CCC4)n1
- T/C (dose: 12.5 mg/kg/injection, schedule: Q04DX002 (ip), vehicle: saline with Tween-80): 111 % of control
- T/C (dose: 25.0 mg/kg/injection, schedule: Q04DX002 (ip), vehicle: saline with Tween-80): 114 % of control
- T/C (dose: 50.0 mg/kg/injection, schedule: Q04DX002 (ip), vehicle: saline with Tween-80): 95 % of control

Structure (SMILES): CC(C)NCC(O)COc1ccccc1C1CCCCC1 (centres undefined)
- T/C (dose: 6.25 mg/kg/injection, schedule: Q01DX009 (ip), vehicle: Klucel (hydroxypropylcellulose) (HPC)): 103 % of control
- T/C (dose: 6.25 mg/kg/injection, schedule: Q01DX009 (ip), vehicle: saline with Tween-80): 102 % of control
- T/C (dose: 12.5 mg/kg/injection, schedule: Q01DX009 (ip), vehicle: Klucel (hydroxypropylcellulose) (HPC)): 106 % of control
- T/C [10]: 123 % of control and 94 % of control
- T/C [11]: 102 % of control and 113 % of control
- T/C (dose: 50.0 mg/kg/injection, schedule: Q01DX009 (ip), vehicle: Klucel (hydroxypropylcellulose) (HPC)): 104 % of control
- T/C [12]: 99 % of control and 118 % of control and 96 % of control
- T/C (dose: 100.0 mg/kg/injection, schedule: Q01DX009 (ip), vehicle: Klucel (hydroxypropylcellulose) (HPC)): 98 % of control

Structure (SMILES): COc1ccc(OC)c(C(=O)c2ccccc2C(=O)O)c1
- T/C (dose: 25.0 mg/kg/injection, schedule: Q01DX005 (ip), vehicle: Klucel (hydroxypropylcellulose) (HPC)): 102 % of control
- T/C [13]: 100 % of control
- T/C [14]: 96 % of control

Structure (SMILES): c1cc2c(ccc3c4c([nH]c32)CCCC4)cn1
- T/C [10]: 101 % of control
- T/C [11]: 105 % of control
- T/C [12]: 99 % of control
- T/C (dose: 100.0 mg/kg/injection, schedule: Q01DX009 (ip), vehicle: saline with Tween-80): 98 % of control

Structure (SMILES): CC1(Cc2c(N)[nH]c(=S)[nH]c2=O)OCCO1
- T/C [1]: 105 % of control
- T/C [2]: 110 % of control
- T/C [3]: 110 % of control

Structure (SMILES): CSC(=O)NC(=O)NC(=O)c1ccc([N+](=O)[O-])cc1
- T/C [13]: 91 % of control
- T/C [14]: 91 % of control

Structure (SMILES): O=[N+]([O-])/C=C/c1cc(Cl)c(/C=C/[N+](=O)[O-])cc1Cl
- T/C [13]: 108 % of control and 121 % of control
- T/C [14]: 120 % of control and 122 % of control
- T/C (dose: 200.0 mg/kg/injection, schedule: Q01DX005 (ip), vehicle: Klucel (hydroxypropylcellulose) (HPC)): 106 % of control and 123 % of control
- T/C (dose: 400.0 mg/kg/injection, schedule: Q01DX005 (ip), vehicle: Klucel (hydroxypropylcellulose) (HPC)): 97 % of control

Structure (SMILES): CC(C)(C)/[N+]([O-])=C/C=C(/C=[N+](\[O-])C(C)(C)C)S(=O)(=O)c1ccccc1
- T/C [7]: 96 % of control
- T/C [8]: 90 % of control
- T/C [9]: 90 % of control
